Results on five compounds are retold here after US20110151018A1, “METHODS OF INSECT CONTROL” (BRANDEIS UNIVERSITY, priority 2008, published 2011).

For one series, the system named is Drosophila melanogaster. The following applies: cited from earlier work.
A further series relates to dTRPA1-2C. Description: AITC-evoked currents of dTRPA1-2C mutant channel in oocytes. The format is cell-based, Drosophila melanogaster. The settings on record: 0.1 and 0.5 mM AITC normalized to 1.0 mM, -60 mV. The method, then: (§1) Two-electrode voltage clamping on Xenopus laevis oocytes: Agonist-evoked dTRPA1 currents were recorded as previously described (52), with the following modifications. Agonists of interest were added to the oocyte perfusion buffer (96 mM NaCl, 1 mM MgCl2, 4 mM KCl, and 5 mM HEPES, pH 7.6). Voltage was initially held at −60 mV, and each 300-ms voltage ramp (−60 mV to 60 mV) per sec was applied to dTRPA1- or AgTRPA1-expressing oocytes during perfusion of agonist-containing buffer. Typical resting membrane potentials of oocytes used were between −25 and −60 mV.
Substitutions of cysteine/lysine residues in dTrpA1 were made by swapping a region of wild type cDNA sequence including codons of cysteine or lysine with mutated cassettes. A pair of mutually complemetary oligonucleotide primers with a desired mutation were prepared, and each of them was paired with upstream or downstream primers for the first two PCR reactions. The resulting two PCR fragments overlap in the mutant primer-annealing region that contains the replaced codons, and served as template for the second PCR reaction amplified only with the upstream and down stream primers. The upstream and down stream primers were designed to be just outside of specific restriction endonuclease target sites that were used to clone the second PCR products back in the wild type dTrpA1 cDNA background sequence. […]

The test system of the next series is D. melanogaster adults. Description: Vapor avoidance assay (choice between AITC tube and DMSO tube). The following applies: dTrpA1 loss-of-function mutants, P<0.0001. Type of series: in vivo, Drosophila melanogaster. The method, then: Vapor avoidance assay: One to three day-old flies were collected, knocked out by CO2, and kept on a fresh food at least 24 hrs before use. Choice apparatus was as previously described (3). ˜200 mM AITC was prepared daily by diluting 1 part of 99% AITC (Sigma) in 49 parts of DMSO. 1 microliter of diluted AITC was placed on the tip of 16-gauge needle (plugged by bending), inserted in bottom of a capped 14-ml polypropylene tube and allowed to diffuse for 2 min prior to use. 1 microliter of DMSO alone was placed on a needle tip inserted into the other 14-ml tube. During diffusion period, flies were transferred to the apparatus held within the fly elevator. After diffusion period, AITC tube was uncapped and inserted one opening of the choice chamber, other opening contained vehicle only tube. […] AITC and vehicle only sides were alternated to offset any bias caused by possible asymmetric condition. Avoidance index was calculated by subtracting the fraction of flies in AITC tube from fraction in vehicle alone tube.

The subject of a further series is flies. The series can be described thus: Ingestion of AITC-laden food over a 60 minute period. The format is in vivo, Drosophila. The following applies: well before the end of the 60 minute assay.
Series [1] has as its target T1, dTRPA1 (Drosophila melanogaster, UniProt Q7Z020).
T1 sequence (Q7Z020 1-1197): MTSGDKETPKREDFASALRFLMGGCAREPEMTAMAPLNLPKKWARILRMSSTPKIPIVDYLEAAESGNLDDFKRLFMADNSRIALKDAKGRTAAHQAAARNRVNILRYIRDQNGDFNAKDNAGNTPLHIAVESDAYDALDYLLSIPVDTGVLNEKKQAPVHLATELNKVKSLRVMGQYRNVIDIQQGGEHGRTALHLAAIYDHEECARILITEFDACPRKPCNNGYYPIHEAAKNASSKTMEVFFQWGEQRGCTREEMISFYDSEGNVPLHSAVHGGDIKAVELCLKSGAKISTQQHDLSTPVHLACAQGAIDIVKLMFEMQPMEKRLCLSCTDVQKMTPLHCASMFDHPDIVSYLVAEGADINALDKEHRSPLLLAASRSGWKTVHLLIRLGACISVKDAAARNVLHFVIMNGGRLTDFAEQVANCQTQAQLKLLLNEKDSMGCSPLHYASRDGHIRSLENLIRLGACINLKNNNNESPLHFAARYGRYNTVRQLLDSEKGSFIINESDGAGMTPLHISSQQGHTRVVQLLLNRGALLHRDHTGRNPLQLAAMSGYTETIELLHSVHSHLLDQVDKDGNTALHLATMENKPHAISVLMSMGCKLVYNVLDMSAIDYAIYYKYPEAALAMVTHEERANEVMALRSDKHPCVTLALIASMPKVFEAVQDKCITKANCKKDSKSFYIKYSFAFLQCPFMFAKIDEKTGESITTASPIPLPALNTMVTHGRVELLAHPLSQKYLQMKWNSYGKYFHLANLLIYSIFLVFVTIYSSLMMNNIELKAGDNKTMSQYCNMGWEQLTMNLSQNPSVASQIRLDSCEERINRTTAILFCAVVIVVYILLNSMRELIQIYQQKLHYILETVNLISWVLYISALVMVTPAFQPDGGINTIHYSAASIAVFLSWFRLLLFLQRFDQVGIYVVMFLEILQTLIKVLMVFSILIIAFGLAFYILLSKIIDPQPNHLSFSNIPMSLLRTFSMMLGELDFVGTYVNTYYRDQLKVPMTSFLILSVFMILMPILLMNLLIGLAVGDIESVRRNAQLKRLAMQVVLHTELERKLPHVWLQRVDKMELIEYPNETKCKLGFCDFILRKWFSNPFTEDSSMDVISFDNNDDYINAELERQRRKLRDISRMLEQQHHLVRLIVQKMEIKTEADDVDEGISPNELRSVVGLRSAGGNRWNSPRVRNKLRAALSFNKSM
Description: Agonist-evoked dTRPA1 currents, two-electrode voltage clamping on Xenopus laevis oocytes. Type of series: cell-based. The following applies: for activation of wild-type dTRPA1 channel currents: 100 μM, applied 60-80 sec, currents at -60 and +60 mV. The method, then:
as §1

Series [2] concerns agTRPA1. Description: Agonist-evoked agTRPA1 currents, two-electrode voltage clamping on Xenopus laevis oocytes. The format is cell-based, Anopheles gambiae. The settings on record: 100 μM. The method, then: as §1
Series [3] has as its system D. melanogaster flies. The series can be described thus: Proboscis extension response (PER) assay, solution contact with labellum. The format is in vivo, Drosophila melanogaster. An excerpt:
Proboscis extension response (PER) assay: As reactive electrophiles are commonly encountered as defensive agents present in food sources, we also examined AITC sensing in the context of fly feeding. Flies aged two to seven days were starved on wet Kim wipes overnight, knocked out on ice, and glued (Elmer's glue) by their wings on a glass slide. Flies recovered in a humidified chamber at least for 2 hrs at room temperature prior to assay. At the beginning of PER assay, the fly was satiated with water. […] When the proboscis was extended and maintained the contact for 2-3 sec with the presented food, it was scored as 1. If the contact is only brief or proboscis stuttered on the tastant, 0.5 was given as the score. When the proboscis never made contact within 5 sec, 0 was given. Each fly was offered five times per experiment, and between offerings water was given to satiation. As AITC was always accepted on first offering, frequency of PER was calculated as a fraction obtained from the […] offerings (sum of four scores divided by 4). For leg only PER assays, the procedures are same as above except that the flies tested were not allowed to contact with the offered food with proboscis, with either 12% sucrose or a mixture of 2 mM AITC/12% sucrose was offered ten times.

Series [4] deals with D. melanogaster flies. The series can be described thus: Leg only PER assay. The format is in vivo, Drosophila melanogaster. The following applies: 2 mM AITC/12% sucrose. An excerpt:
Proboscis extension response (PER) assay: As reactive electrophiles are commonly encountered as defensive agents present in food sources, we also examined AITC sensing in the context of fly feeding. Flies aged two to seven days were starved on wet Kim wipes overnight, knocked out on ice, and glued (Elmer's glue) by their wings on a glass slide. Flies recovered in a humidified chamber at least for 2 hrs at room temperature prior to assay. At the beginning of PER assay, the fly was satiated with water. Next, solution containing tastants was presented to the fly as a liquid ball on a pipette tip, touching the forelegs only. When the proboscis was extended and maintained the contact for 2-3 sec with the presented food, it was scored as 1. If the contact is only brief or proboscis stuttered on the tastant, 0.5 was given as the score. When the proboscis never made contact within 5 sec, 0 was given. Each fly was offered five times per experiment, and between offerings water was given to satiation. As AITC was always accepted on first offering, frequency of PER was calculated as a fraction obtained from the […] offerings (sum of four scores divided by 4). […]

Series [5] deals with T1, dTRPA1. Description: Warmth-evoked currents in dTRPA1-expressing Xenopus laevis oocytes (two electrode voltage clamp). Type of series: cell-based. The settings on record: 50 micromolar Ruthenium Red, -60 mV. As to the method: (§2) Oocyte-positive Xenopus laevis females were obtained from Nasco (Ft. Atkinson, Wis.), and maintained at ˜19° C. with 12 h/12 h dark/light cycles. Ovaries were surgically isolated, and treated with 1.5 mg/ml of collagenase type II (Worthington, Lakewood, N.J.) for 90 min, and individual oocytes were defolliculated with a pair of forceps. cRNA was transcribed by mMessage mMachine T3 kit (Ambion, Austin, Tex.) from each cDNA construct, and 50 nl aliquot per oocyte was injected using an automatic Drummond microinjector. (agTRPA1 sequence deposited as Genbank #108 1610.) Membrane potential was maintained at −60 mV by two electrode voltage clamping (TEVC) during warm-activated current recording. Resistance of pulled glass capillary electrodes filled with 3 M KCl was between 0.5 and 1.5 MΩ. Typical resting membrane potentials of oocytes used for current recording were between −25 and -60 mV. Current was recorded at 2 kHz and filtered to 1 kHz with the output filter of the amplifier (OC-725B, Warner instruments, Hamden, Conn.). […] Each voltage step lasted 100 ms following 10 ms holding at −60 mV, and the recorded current in the last 40 ms was averaged to determine the current amplitude at a given voltage.

Series [6] concerns agTRPA1. Description: Warmth-evoked currents in agTRPA1-expressing Xenopus laevis oocytes (two electrode voltage clamp). Type of series: cell-based, Anopheles gambiae. The settings on record: 50 micromolar Ruthenium Red, -60 mV. As to the method:
as §2

Series [7] relates to motor neurons expressing dTRPA1. Description: Larval neuromuscular junction electrophysiology (EJPs in muscle 6). The format is cell-based, Drosophila melanogaster. An excerpt: Larval neuromuscular junction electrophysiology: dTRPA1 was expressed in larval motor neurons using OK371-GAL4, a driver specific for glutamatergic neurons (Aberle et al., 2006) as described (61). In all preparations, the ventral ganglion was dissected away, leaving only motor axons and terminals. Larval muscle 6 (m6) was impaled with a sharp electrode (10-20 MO) containing 3M KCl. Resting membrane potentials were typically between −40 and −50 mV. Saline was perfused over the preparation, then increasing concentrations of cinnemaldehyde applied using a custom built gravity perfusion system. EJP frequency was measured-30 sec after application of each concentration using analysis scripts in Spike 2 (Cambridge Electronic Design, Cambridge, UK).

Regarding `C=CCN=C=S` [AITC, allyl isothiocyanate], in the series on Drosophila melanogaster, the “toxicity and mutagenicity to the fruit fly” value was “toxic and mutagenic”. In addition, in the series on dTRPA1-2C, the “AITC sensitivity of dTRPA1-2C compared to wild type dTRPA1” value is “significantly decreased AITC sensitivity”. For the same compound, the “AITC vapor avoidance compared to control” value with D. melanogaster adults is reported as “significantly reduced AITC avoidance”. The “incapacitation of flies on exposure” value with flies is “incapacitated all flies”. The “activation of wild-type dTRPA1 channel currents” value on dTRPA1 [1] is “robustly activated”. Further, in the series on agTRPA1 [2], the “activation of agTRPA1 channel currents” value is “robust responses”. Further, the “PER upon the first offering” value in the series with D. melanogaster flies [3] (12% sucrose containing 2 mM AITC, labellum) is listed as “All flies also exhibited a PER”. In addition, in the series on D. melanogaster flies [3] (control flies, 12% sucrose containing 2 mM AITC, labellum (sucrose alone 95%)), the “PER triggered by the four subsequent offerings” value is 33%. Also, the “PER in response to multiple offerings” value in the series with D. melanogaster flies [3] (dTrpA1 mutants, sucrose containing AITC) is on record as “no reduction in PER”. In the series with D. melanogaster flies [4], the “effect on PER elicited by contact of 12% sucrose solution with the legs” value was “no detectable effects”.

`N.N.N.N.N.N.N.N.N.N.N.N.N.N.[Cl-].[Cl-].[Cl-].[Cl-].[Cl-].[Cl-].[O-2].[O-2].[Ru+3].[Ru+3].[Ru+4]` [Ruthenium Red, ruthenium red]: on dTRPA1 [1] (100 μM RR), the “inhibition of electrophile-evoked dTRPA1 currents” value is listed as “inhibited”. For the same compound, the “inhibition of warmth-activated dTRPA1 currents” value against dTRPA1 [5] was “inhibited”. Also, in the series with agTRPA1 [6], the “inhibition of warmth-activated agTRPA1 currents” value was “inhibited”.

Consider `C=CC=O` [acrolein], for which the “toxicity and mutagenicity to the fruit fly” value in the series with Drosophila melanogaster was “toxic and mutagenic”. Besides, at dTRPA1 [1], the “activation of wild-type dTRPA1 channel currents” value is “robustly activated”.

`Cn1c(=O)c2c(ncn2C)n(C)c1=O` [caffeine]: the “inhibition of the PER, dTrpA1 mutants versus controls” value in the series on D. melanogaster flies [3] (caffeine-mediated) is “indistinguishable”.

On to `O=CC=Cc1ccccc1` [cinnamaldehyde], for which the “activation of wild-type dTRPA1 channel currents” value on dTRPA1 [1] is “robustly activated”. Further, in [7] (genetic controls without dTRPA1), the “response of control motor neurons” value is given as “unresponsive”. Besides, the “activation of motor neurons expressing dTRPA1 (EJPs in target muscles)” value in series [7] (ok371-Gal4 driven dTRPA1, 3rd instar larvae) is “robustly activated”.
